SMILES strings stand for the structures. Structures can show the parent of a compound that is named as a salt.

In assay [1] the target is T1, hNav1.7 (Homo sapiens (Human), UniProt Q15858). In words: Tritiated compound binding to membranes from cells expressing hNav1.7 and the β1 subunit, competitive binding (LBA, Ex. 243A). Conditions: 100 pM [3H]compound, 18 h, room temperature.
Target sequence in this assay (Q15858 whole entry, looked up): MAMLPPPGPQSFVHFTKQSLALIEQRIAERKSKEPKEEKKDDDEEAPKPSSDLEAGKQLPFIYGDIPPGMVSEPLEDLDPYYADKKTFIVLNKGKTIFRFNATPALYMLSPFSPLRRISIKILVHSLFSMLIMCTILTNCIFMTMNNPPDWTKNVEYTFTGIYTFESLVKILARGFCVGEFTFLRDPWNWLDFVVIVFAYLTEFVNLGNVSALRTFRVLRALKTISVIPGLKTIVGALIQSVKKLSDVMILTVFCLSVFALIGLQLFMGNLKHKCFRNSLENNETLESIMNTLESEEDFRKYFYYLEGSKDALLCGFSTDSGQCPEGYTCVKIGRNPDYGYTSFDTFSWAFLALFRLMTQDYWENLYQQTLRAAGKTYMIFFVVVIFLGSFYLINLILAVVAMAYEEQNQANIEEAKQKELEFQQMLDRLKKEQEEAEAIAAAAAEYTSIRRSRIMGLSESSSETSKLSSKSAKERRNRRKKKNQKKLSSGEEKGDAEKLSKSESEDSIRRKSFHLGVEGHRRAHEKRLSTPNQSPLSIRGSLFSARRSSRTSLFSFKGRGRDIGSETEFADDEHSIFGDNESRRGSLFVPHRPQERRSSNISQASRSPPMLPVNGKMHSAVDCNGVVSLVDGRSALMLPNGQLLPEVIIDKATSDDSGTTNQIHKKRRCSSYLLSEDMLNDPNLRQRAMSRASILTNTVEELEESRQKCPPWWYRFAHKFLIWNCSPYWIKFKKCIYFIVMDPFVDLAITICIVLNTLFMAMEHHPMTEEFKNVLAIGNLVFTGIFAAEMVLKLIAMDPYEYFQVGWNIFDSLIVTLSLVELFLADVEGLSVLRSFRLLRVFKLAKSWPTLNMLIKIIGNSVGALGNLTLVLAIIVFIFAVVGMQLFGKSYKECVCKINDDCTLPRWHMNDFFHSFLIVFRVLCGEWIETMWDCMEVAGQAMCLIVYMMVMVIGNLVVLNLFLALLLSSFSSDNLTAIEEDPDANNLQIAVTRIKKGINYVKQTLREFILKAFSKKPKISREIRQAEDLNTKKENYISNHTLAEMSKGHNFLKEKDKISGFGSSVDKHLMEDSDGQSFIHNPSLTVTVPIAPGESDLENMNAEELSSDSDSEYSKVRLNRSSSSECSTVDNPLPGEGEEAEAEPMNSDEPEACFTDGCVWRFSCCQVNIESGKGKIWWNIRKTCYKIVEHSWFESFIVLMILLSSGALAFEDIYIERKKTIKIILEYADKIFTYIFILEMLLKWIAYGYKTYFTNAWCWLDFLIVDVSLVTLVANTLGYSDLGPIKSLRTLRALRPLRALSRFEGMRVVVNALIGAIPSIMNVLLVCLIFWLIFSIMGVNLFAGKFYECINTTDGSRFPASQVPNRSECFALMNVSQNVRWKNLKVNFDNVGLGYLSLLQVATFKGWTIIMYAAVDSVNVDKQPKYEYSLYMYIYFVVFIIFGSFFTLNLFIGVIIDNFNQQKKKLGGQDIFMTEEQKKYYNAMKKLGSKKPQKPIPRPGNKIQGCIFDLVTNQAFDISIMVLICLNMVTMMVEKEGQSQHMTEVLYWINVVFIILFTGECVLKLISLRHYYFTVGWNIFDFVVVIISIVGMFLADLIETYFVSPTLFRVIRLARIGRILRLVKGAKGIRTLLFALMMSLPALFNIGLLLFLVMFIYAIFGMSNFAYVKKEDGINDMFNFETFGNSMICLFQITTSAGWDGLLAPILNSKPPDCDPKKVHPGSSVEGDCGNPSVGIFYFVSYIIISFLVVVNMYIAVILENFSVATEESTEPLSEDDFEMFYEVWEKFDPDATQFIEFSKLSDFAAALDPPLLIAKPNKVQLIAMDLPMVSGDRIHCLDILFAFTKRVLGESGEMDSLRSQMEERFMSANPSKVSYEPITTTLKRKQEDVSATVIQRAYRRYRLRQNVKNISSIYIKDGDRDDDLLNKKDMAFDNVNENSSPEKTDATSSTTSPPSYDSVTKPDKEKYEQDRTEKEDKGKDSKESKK
Target sequence in this assay (Q07699 whole entry partner, looked up): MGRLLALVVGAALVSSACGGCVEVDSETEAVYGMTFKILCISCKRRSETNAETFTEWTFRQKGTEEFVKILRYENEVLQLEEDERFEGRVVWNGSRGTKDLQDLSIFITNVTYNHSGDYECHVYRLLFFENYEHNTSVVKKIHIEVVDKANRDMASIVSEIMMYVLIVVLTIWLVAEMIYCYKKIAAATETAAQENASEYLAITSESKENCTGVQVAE
In assay [2] the target is T1, hNav1.7. In words: Patch voltage clamp electrophysiology assay (EP), Syncropatch 384PE, CHO cells expressing Nav1.7. In kind it is cell-based. Conditions: holding potential -50 mV; […] compound incubation; read-out: EP_SP hNav1.7 (Ex. 243B) IC50. In short, it runs like this: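 Automated whole-cell patch clamp on CHO cells stably expressing human Nav1.7, CsCl/EGTA internal and NMDG/80 mM Na+ external (pH 7.4). From −50 mV holding, −10 mV step, 20 ms recovery at −150 mV, then second −10 mV pulse where block is measured; inhibition after 7.5 min compound incubation.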
Target sequence in this assay (Q15858 other isoform, or with tags, fused parts or gaps): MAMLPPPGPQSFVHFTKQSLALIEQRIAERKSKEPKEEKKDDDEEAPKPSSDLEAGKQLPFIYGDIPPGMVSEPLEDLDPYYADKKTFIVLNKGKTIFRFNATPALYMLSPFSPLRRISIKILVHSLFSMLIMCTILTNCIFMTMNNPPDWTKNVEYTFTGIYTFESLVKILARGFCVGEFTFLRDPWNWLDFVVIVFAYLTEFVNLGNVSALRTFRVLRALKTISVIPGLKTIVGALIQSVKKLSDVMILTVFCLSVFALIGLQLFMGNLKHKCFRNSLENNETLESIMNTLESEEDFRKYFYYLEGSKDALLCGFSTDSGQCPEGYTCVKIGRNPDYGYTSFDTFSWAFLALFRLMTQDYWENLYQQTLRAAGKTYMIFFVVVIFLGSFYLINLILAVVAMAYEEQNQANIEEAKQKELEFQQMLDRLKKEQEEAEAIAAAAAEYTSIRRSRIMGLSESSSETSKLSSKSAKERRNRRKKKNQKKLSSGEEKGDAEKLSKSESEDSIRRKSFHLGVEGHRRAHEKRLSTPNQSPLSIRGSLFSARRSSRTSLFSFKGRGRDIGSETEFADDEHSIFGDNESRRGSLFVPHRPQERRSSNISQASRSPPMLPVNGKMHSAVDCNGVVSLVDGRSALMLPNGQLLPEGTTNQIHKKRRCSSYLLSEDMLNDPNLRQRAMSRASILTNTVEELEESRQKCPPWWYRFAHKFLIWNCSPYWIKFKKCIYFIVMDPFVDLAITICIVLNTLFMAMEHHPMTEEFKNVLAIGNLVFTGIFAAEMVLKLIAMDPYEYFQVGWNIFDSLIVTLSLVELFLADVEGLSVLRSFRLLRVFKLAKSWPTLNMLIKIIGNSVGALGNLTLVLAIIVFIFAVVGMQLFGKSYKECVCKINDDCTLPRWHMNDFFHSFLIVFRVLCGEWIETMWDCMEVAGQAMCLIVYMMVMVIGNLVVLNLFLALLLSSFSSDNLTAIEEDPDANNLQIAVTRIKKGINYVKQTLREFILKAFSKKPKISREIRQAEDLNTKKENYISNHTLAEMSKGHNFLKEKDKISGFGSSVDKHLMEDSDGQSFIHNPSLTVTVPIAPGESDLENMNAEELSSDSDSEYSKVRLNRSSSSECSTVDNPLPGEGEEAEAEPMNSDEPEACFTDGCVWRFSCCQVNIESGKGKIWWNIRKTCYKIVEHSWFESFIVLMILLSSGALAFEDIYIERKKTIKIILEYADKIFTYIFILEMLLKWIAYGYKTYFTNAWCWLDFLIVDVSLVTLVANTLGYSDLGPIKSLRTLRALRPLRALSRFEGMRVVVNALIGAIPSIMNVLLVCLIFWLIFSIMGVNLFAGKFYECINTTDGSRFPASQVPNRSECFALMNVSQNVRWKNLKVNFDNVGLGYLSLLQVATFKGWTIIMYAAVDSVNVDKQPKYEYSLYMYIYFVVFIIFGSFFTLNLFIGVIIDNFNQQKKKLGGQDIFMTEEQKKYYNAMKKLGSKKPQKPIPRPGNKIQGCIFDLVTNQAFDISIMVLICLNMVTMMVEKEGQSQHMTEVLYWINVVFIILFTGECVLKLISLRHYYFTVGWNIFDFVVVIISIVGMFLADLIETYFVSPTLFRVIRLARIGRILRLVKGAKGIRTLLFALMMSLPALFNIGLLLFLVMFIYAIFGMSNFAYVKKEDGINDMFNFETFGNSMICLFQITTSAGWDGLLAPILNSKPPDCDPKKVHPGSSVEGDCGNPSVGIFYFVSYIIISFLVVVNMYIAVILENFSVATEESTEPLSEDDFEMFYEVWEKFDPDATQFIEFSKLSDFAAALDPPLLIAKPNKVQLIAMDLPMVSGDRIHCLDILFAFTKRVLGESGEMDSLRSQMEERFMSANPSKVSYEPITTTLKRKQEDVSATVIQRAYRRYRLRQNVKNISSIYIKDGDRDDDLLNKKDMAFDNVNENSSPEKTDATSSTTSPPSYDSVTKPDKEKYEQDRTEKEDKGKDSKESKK

The target of assay [3] is T1, hNav1.7. In words: Tritiated compound binding to membranes from cells expressing hNav1.7 and the β1 subunit, modified protocol (LBA, Ex. 243B). The conditions noted are these: 300 pM [3H]compound, room temperature, read-out: Nav1.7 LBA (Ex. 243B) IC50.
Target sequence in this assay (Q15858 whole entry, looked up): as the sequence (Q15858 whole entry, looked up) above
Target sequence in this assay (Q07699 whole entry partner, looked up): as the sequence (Q07699 whole entry partner, looked up) above
[4] abbreviates: read-out: Nav1.7 LBA (Ex. 243A) IC50.
[5] abbreviates: read-out: Nav1.7 (LBA) (Ex. 243A).

In the case of `CN1CC(N(C)[C@H]2CCCC[C@@H]2Nc2cc(F)c(S(=O)(=O)Nc3nccs3)cc2Cl)C1` [Example 41, 5-chloro-2-fluoro-4-(((1S,2S)-2-(methyl(1-methylazetidin-3-yl)amino)cyclohexyl)amino)-N-(thiazol-2-yl)benzenesulfonamide formate], the IC50 at hNav1.7 [1] (setting [4]) was determined as 4.51 nM; at hNav1.7 [2] it was 3.4 nM.

`CN(C1CNC1)[C@H]1CCCC[C@@H]1Oc1cc(F)c(S(=O)(=O)Nc2nccs2)cc1Cl` [Example 66, 4-(((1S,2S)-2-(azetidin-3-yl(methyl)amino)cyclohexyl)oxy)-5-chloro-2-fluoro-N-(thiazol-2-yl)benzenesulfonamide formate]: the IC50 on hNav1.7 [1] (setting [4]) is 2.07 nM; on hNav1.7 [3], 7.74 nM; on hNav1.7 [2] it was 2.91 nM.

`CN(CCO)[C@H]1CCCC[C@@H]1Nc1cc(F)c(S(=O)(=O)Nc2nccs2)cc1Cl` [Example 38, 5-chloro-2-fluoro-4-(((1S,2S)-2-((2-hydroxyethyl)(methyl)amino)cyclohexyl)amino)-N-(thiazol-2-yl)benzenesulfonamide formate]: the IC50 at hNav1.7 [1] (setting [4]) was determined as 5.05 nM; on hNav1.7 [3], 34.9 nM; on hNav1.7 [2], 3.06 nM.

On to `COCCN(C)[C@H]1CCCC[C@@H]1Nc1cc(F)c(S(=O)(=O)Nc2nccs2)cc1Cl` [Example 32, 5-chloro-2-fluoro-4-(((1S,2S)-2-((2-methoxyethyl)(methyl)amino)cyclohexyl)amino)-N-(thiazol-2-yl)benzenesulfonamide formate], for which the IC50 was found to be 38.2 nM at hNav1.7 [1] (setting [4]) and 24.6 nM on hNav1.7 [2].

In the case of `CN(C)[C@H]1CCCC[C@@H]1Nc1cc(F)c(S(=O)(=O)Nc2cccc(F)n2)cc1Cl` [Example 35, 5-chloro-4-(((1S,2S)-2-(dimethylamino)cyclohexyl)amino)-2-fluoro-N-(6-fluoropyridin-2-yl)benzenesulfonamide], the results for the IC50 at hNav1.7 [1] (setting [4]), on hNav1.7 [3] and on hNav1.7 [2] were 65.5 nM, 313 nM and 59.9 nM, respectively.

With `O=S(=O)(Nc1nccs1)c1cc(Cl)c(N[C@H]2CCCC[C@@H]2N2CCCC2)cc1F` [Example 30, 5-chloro-2-fluoro-4-(((1S,2S)-2-(pyrrolidin-1-yl)cyclohexyl)amino)-N-(thiazol-2-yl)benzenesulfonamide], the IC50 was 9.73 nM at hNav1.7 [1] (setting [4]) and 9.77 nM on hNav1.7 [2].

With `CN(C1CNC1)[C@H]1CCCC[C@@H]1Nc1cc(F)c(S(=O)(=O)Nc2ccncn2)cc1Cl` [Example 53, 4-(((1S,2S)-2-(azetidin-3-yl(methyl)amino)cyclohexyl)amino)-5-chloro-2-fluoro-N-(pyrimidin-4-yl)benzenesulfonamide], the IC50 at hNav1.7 [1] (setting [4]) was 30.5 nM; on hNav1.7 [2], 5.69 nM.

For `O=S(=O)(Nc1nccs1)c1cc(Cl)c(N[C@H]2CCCC[C@@H]2NCc2ccccc2)cc1F` [Example 5, 4-(((1S,2S)-2-(benzylamino)cyclohexyl)amino)-5-chloro-2-fluoro-N-(thiazol-2-yl)benzenesulfonamide 2,2,2-trifluoroacetate], the IC50 at hNav1.7 [1] (setting [5]) turned out to be 426 nM.

As to `CN1CC(N(C)[C@H]2CCCC[C@@H]2Nc2cc(F)c(S(=O)(=O)Nc3cccc(F)n3)cc2Cl)C1` [Example 63, 5-chloro-2-fluoro-N-(6-fluoropyridin-2-yl)-4-(((1S,2S)-2-(methyl(1-methylazetidin-3-yl)amino)cyclohexyl)amino)benzenesulfonamide], the IC50 on hNav1.7 [1] (setting [4]) turned out to be 9.81 nM; on hNav1.7 [2], 5.35 nM.

With `CN(C)[C@@H]1CC[C@H](C(F)(F)F)C[C@H]1Nc1cc(F)c(S(=O)(=O)Nc2nccs2)cc1Cl` [Example 84, 5-chloro-4-(((1R,2R,5S)-2-(dimethylamino)-5-(trifluoromethyl)cyclohexyl)amino)-2-fluoro-N-(thiazol-2-yl)benzenesulfonamide], at hNav1.7 [1] (setting [4]), the IC50 came out at 3000 nM.

As to `O=S(=O)(Nc1nccs1)c1cc(Cl)c(N[C@H]2CCCC[C@@H]2NC2CCC2)cc1F` [Example 16, 5-chloro-4-[[(1S,2S)-2-(cyclobutylamino)cyclohexyl]amino]-2-fluoro-N-thiazol-2-yl-benzenesulfonamide], the IC50 at hNav1.7 [1] (setting [5]) turned out to be 325 nM.

Take `CN(C1CNC1)[C@H]1CCCC[C@@H]1Nc1cc(F)c(S(=O)(=O)Nc2nccs2)cc1Cl` [Example 39, 4-(((1S,2S)-2-(azetidin-3-yl(methyl)amino)cyclohexyl)amino)-5-chloro-2-fluoro-N-(thiazol-2-yl)benzenesulfonamide dihydrochloride]: the IC50 is 1.88 nM at hNav1.7 [1] (setting [4]), 12.8 nM at hNav1.7 [3] and 1.4 nM at hNav1.7 [2].

The values are drawn from patent US10457654B2 (GENENTECH, INC., priority 2017, dated 2019).
